These results are taken from patent publication US9346815B2, “5-chloro-2-difluoromethoxyphenyl pyrazolopyrimidine compounds, compositions and methods of use thereof” (Genentech, Inc., priority 2014, dated 2016).

By Ki is commonly meant the equilibrium dissociation constant of an inhibitor or competing ligand from its target. A word on the EC50: it is the concentration that produces a half-maximal response.

The structures appear in SMILES notation.

For assay [1], the target named is isolated recombinant JAK1 kinase domain (Homo sapiens (Human), UniProt P23458). The experiment in a line: JAK1 enzyme assay (Caliper LabChip, peptide phosphorylation). Format: biochemical. The settings on record: isolated recombinant JAK1 kinase domain, 25 μM ATP.
Assay [2] concerns the target isolated recombinant JAK2 kinase domain (Homo sapiens (Human), UniProt O60674). As to the kind of experiment: JAK2 enzyme assay (Caliper LabChip, peptide phosphorylation). Format: biochemical. To be noted: 25 μM ATP.
The subject of assay [3] is JAK1-dependent STAT6 phosphorylation downstream of IL-13 stimulation in BEAS-2B human bronchial epithelial cells. The experiment in a line: JAK1 pathway assay in BEAS-2B cells (IL-13-pSTAT6, MSD). The format is cell-based. The settings on record: read-out: IL13-pSTAT6 EC50 (uM)_BEAS-2B. An outline of the steps: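 BEAS-2B: complete growth medium, compound 1 hr at 37° C. TF-1: GM-CSF-starved overnight, serum-free OptiMEM, compound 30 min.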

Sequence of isolated recombinant JAK2 kinase domain (O60674 849-1124): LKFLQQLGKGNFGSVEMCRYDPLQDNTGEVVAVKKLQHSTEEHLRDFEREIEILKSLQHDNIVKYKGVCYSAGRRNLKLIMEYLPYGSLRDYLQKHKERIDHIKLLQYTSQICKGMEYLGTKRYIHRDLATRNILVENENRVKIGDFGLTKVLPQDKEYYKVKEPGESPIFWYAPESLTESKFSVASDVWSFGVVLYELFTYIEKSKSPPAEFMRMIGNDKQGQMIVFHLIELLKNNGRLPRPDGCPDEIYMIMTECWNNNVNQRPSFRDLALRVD
Sequence of isolated recombinant JAK1 kinase domain (P23458 875-1153): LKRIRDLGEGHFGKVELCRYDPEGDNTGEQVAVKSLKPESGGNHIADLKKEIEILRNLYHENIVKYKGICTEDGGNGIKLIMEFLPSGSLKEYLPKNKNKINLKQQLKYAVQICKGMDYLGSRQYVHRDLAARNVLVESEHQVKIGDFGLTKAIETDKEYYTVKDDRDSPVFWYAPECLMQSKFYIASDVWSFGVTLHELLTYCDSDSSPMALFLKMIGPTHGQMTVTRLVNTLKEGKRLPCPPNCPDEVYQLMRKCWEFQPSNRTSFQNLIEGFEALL

Regarding `O=C(Nc1cn(CC(O)CN2CCCCC2)nc1-c1cc(Cl)ccc1OC(F)F)c1cnn2cccnc12` (stereo not drawn) [Example 405, N-(3-(5-chloro-2-(difluoromethoxy)phenyl)-1-(2-hydroxy-3-(piperidin-1-yl)propyl)-1H-pyrazol-4-yl)pyrazolo[1,5-a]pyrimidine-3-carboxamide], the figures for the Ki in assay [1] and in assay [2] were 1.73 nM and 0.68 nM, respectively. In assay [3], the EC50 came out at 0.0257 µM.

In the case of `N#CCCN1CCN(C(=O)Cn2cc(NC(=O)c3cnn4cccnc34)c(-c3cc(Cl)ccc3OC(F)F)n2)CC1` [Example 406, N-(3-(5-chloro-2-(difluoromethoxy)phenyl)-1-(2-(4-(2-cyanoethyl)piperazin-1-yl)-2-oxoethyl)-1H-pyrazol-4-yl)pyrazolo[1,5-a]pyrimidine-3-carboxamide], the Ki in assay [1] came out at 0.46 nM; in assay [2], 0.99 nM. For the same compound, the 50% effective concentration (EC50) in assay [3] turned out to be 0.0333 µM.

As to `O=C1CN(C2CCN(C(=O)Cn3cc(NC(=O)c4cnn5cccnc45)c(-c4cc(Cl)ccc4OC(F)F)n3)CC2)CCN1` [Example 407, N-(3-(5-chloro-2-(difluoromethoxy)phenyl)-1-(2-oxo-2-(4-(3-oxopiperazin-1-yl)piperidin-1-yl)ethyl)-1H-pyrazol-4-yl)pyrazolo[1,5-a]pyrimidine-3-carboxamide], the Ki in assay [1] was 0.36 nM; in assay [2] it was 0.71 nM. Also, the EC50 in assay [3] is 0.172 µM.

In the case of `O=C(Nc1cn(CC(=O)N2CCC(C(=O)N3CCNCC3)CC2)nc1-c1cc(Cl)ccc1OC(F)F)c1cnn2cccnc12` [Example 408, N-(3-(5-chloro-2-(difluoromethoxy)phenyl)-1-(2-oxo-2-(4-(piperazine-1-carbonyl)piperidin-1-yl)ethyl)-1H-pyrazol-4-yl)pyrazolo[1,5-a]pyrimidine-3-carboxamide], the Ki is 0.59 nM in assay [1] and 2.29 nM in assay [2]. In assay [3], the EC50 is 0.121 µM.

With `CC1(N2CCOCC2)CCN(C(=O)Cn2cc(NC(=O)c3cnn4cccnc34)c(-c3cc(Cl)ccc3OC(F)F)n2)CC1` [Example 410, N-(3-(5-chloro-2-(difluoromethoxy)phenyl)-1-(2-(4-methyl-4-morpholinopiperidin-1-yl)-2-oxoethyl)-1H-pyrazol-4-yl)pyrazolo[1,5-a]pyrimidine-3-carboxamide], the Ki in assay [1] worked out at 0.6 nM; in assay [2], 1.25 nM. Moreover, the EC50 in assay [3] stood at 0.0183 µM.

`CN(C)CC(=O)Cn1cc(NC(=O)c2cnn3cccnc23)c(-c2cc(Cl)ccc2OC(F)F)n1` [Example 411, N-(3-(5-chloro-2-(difluoromethoxy)phenyl)-1-(3-(dimethylamino)-2-oxopropyl)-1H-pyrazol-4-yl)pyrazolo[1,5-a]pyrimidine-3-carboxamide]: the values for the Ki in assay [1] and in assay [2] were 1.7 nM and 0.43 nM, respectively. The EC50 in assay [3] is 0.0228 µM.

For the compound `CC(C#N)CN(C)C1CCN(C(=O)Cn2cc(NC(=O)c3cnn4cccnc34)c(-c3cc(Cl)ccc3OC(F)F)n2)CC1` (stereo not drawn) [Example 413, N-(3-(5-chloro-2-(difluoromethoxy)phenyl)-1-(2-(4-((2-cyanopropyl) (methyl)amino)piperidin-1-yl)-2-oxoethyl)-1H-pyrazol-4-yl)pyrazolo[1,5-a]pyrimidine-3-carboxamide], the Ki in assay [1] worked out at 0.25 nM; in assay [2], 0.74 nM. The EC50 in assay [3] amounted to 0.0209 µM.

As to `CN1CCC(=CCn2cc(NC(=O)c3cnn4cccnc34)c(-c3cc(Cl)ccc3OC(F)F)n2)CC1` [Example 415, N-(3-(5-chloro-2-(difluoromethoxy)phenyl)-1-(2-(1-methylpiperidin-4-ylidene)ethyl)-1H-pyrazol-4-yl)pyrazolo[1,5-a]pyrimidine-3-carboxamide], the Ki stood at 2.99 nM in assay [1] and 2.09 nM in assay [2]. Also, in assay [3], the EC50 is 0.046 µM.

As for `O=C(Nc1cn(CCN2CCNCC2=O)nc1-c1cc(Cl)ccc1OC(F)F)c1cnn2cccnc12` [Example 417, N-(3-(5-chloro-2-(difluoromethoxy)phenyl)-1-(2-(2-oxopiperazin-1-yl)ethyl)-1H-pyrazol-4-yl)pyrazolo[1,5-a]pyrimidine-3-carboxamide], the Ki in assay [1] came out at 2.91 nM; in assay [2], 1.37 nM. Also, in assay [3], the EC50 came to 0.0934 µM.

As to `CC(C#N)CNC1CCN(C(=O)Cn2cc(NC(=O)c3cnn4cccnc34)c(-c3cc(Cl)ccc3OC(F)F)n2)CC1` (stereo not drawn) [Example 419, N-(3-(5-chloro-2-(difluoromethoxy)phenyl)-1-(2-(4-(2-cyanopropyl-amino)piperidin-1-yl)-2-oxoethyl)-1H-pyrazol-4-yl)pyrazolo[1,5-a]pyrimidine-3-carboxamide], the figures for the Ki in assay [1] and in assay [2] were 0.41 nM and 1.06 nM, respectively. In addition, in assay [3], the EC50 stood at 0.0313 µM.

In the case of `CN(CCC#N)C1CCC(=CCn2cc(NC(=O)c3cnn4cccnc34)c(-c3cc(Cl)ccc3OC(F)F)n2)CC1` (stereo not drawn) [Example 420, N-(3-(5-chloro-2-(difluoromethoxy)phenyl)-1-(2-(4-((2-cyanoethyl)(methyl)amino)cyclohexylidene)ethyl)-1H-pyrazol-4-yl)pyrazolo[1,5-a]pyrimidine-3-carboxamide], the Ki in assay [1] came to 0.57 nM; in assay [2] it was 0.81 nM. Also, the EC50 in assay [3] amounted to 0.0301 µM.

Regarding `N#CCCNC1CCC(=CCn2cc(NC(=O)c3cnn4cccnc34)c(-c3cc(Cl)ccc3OC(F)F)n2)CC1` (stereo not drawn) [Example 421, N-(3-(5-chloro-2-(difluoromethoxy)phenyl)-1-(2-(4-(2-cyanoethylamino)cyclohexylidene)ethyl)-1H-pyrazol-4-yl)pyrazolo[1,5-a]pyrimidine-3-carboxamide], the Ki was determined as 0.65 nM in assay [1] and 0.89 nM in assay [2]. In assay [3], the EC50 turned out to be 0.0498 µM.

With `NC1CCC(=CCn2cc(NC(=O)c3cnn4cccnc34)c(-c3cc(Cl)ccc3OC(F)F)n2)CC1` (stereo not drawn) [Example 422, N-(1-(2-(4-amino-cyclohexylidene)ethyl)-3-(5-chloro-2-(difluoromethoxy)phenyl)-1H-pyrazol-4-yl)pyrazolo[1,5-a]pyrimidine-3-carboxamide], the inhibition constant Ki in assay [1] was found to be 0.89 nM; in assay [2], 1.77 nM. For the same compound, the EC50 in assay [3] stood at 0.061 µM.

`CN(C)C(=O)[C@@H]1CCCN1CC1CCN(C(=O)Cn2cc(NC(=O)c3cnn4cccnc34)c(-c3cc(Cl)ccc3OC(F)F)n2)CC1` [Example 423, N-(3-(5-chloro-2-(difluoromethoxy)phenyl)-1-(2-(4-(((S)-2-(dimethylcarbamoyl)pyrrolidin-1-yl)methyl)piperidin-1-yl)-2-oxoethyl)-1H-pyrazol-4-yl)pyrazolo[1,5-a]pyrimidine-3-carboxamide]: the Ki is 0.73 nM in assay [1] and 2.79 nM in assay [2]. Further, in assay [3], the EC50 worked out at 0.0312 µM.

On to `CN(C)C(=O)[C@@H]1CCCN1C1CCN(C(=O)Cn2cc(NC(=O)c3cnn4cccnc34)c(-c3cc(Cl)ccc3OC(F)F)n2)CC1` [Example 424, N-(3-(5-chloro-2-(difluoromethoxy)phenyl)-1-(2-(4-((S)-2-(dimethylcarbamoyl)pyrrolidin-1-yl)piperidin-1-yl)-2-oxoethyl)-1H-pyrazol-4-yl)pyrazolo[1,5-a]pyrimidine-3-carboxamide], for which the Ki in assay [1] was 1.12 nM; in assay [2], 3.44 nM. For the same compound, the EC50 in assay [3] was found to be 0.0987 µM.
